Assay results: patent US12371454B2, “Cyclic peptide compound having Kras inhibitory action” (priority 2019, dated 2025)
Positions of bridges follow the written chain, without caps; N, C: chain ends. Non-standard residues stand in square brackets, D forms with d. Residues, ends and D or L forms follow the SMILES beside them. *: point of attachment. hPhe(3-Cl-4-CF3) = N[C@@H](CCc1ccc(C(F)(F)F)c(Cl)c1)C(=O)O; hPhe(3-F,4-CF3) = N[C@@H](CCc1ccc(C(F)(F)F)c(F)c1)C(=O)O; NMePhe(4-CF3) = CN[C@@H](Cc1ccc(C(F)(F)F)cc1)C(=O)O; hPhe(4-CF3) = N[C@@H](CCc1ccc(C(F)(F)F)cc1)C(=O)O; NEtPhe(4-Cl) = CCN[C@@H](Cc1ccc(Cl)cc1)C(=O)O; 3Oxa8azabicyclo(3.2.1)octane = C1CC2COCC1N2*; NMeAbu(4,4,4-F3) = CN[C@@H](CC(F)(F)F)C(=O)O; NMePhe(4-Cl) = CN[C@@H](Cc1ccc(Cl)cc1)C(=O)O; NMePhe(4-F) = CN[C@@H](Cc1ccc(F)cc1)C(=O)O; NMeAla(cPent) = CN[C@@H](CC1CCCC1)C(=O)O; NMeGly(cPent) = CN[C@H](C(=O)O)C1CCCC1; Phe(3-I) = N[C@@H](Cc1cccc(I)c1)C(=O)O; NMeCha = CN[C@@H](CC1CCCCC1)C(=O)O; NMeChg = CN[C@H](C(=O)O)C1CCCCC1; NMeD = CN[C@@H](CC(=O)O)C(=O)O; NMeL = CN[C@@H](CC(C)C)C(=O)O; NMeV = CN[C@H](C(=O)O)C(C)C; NMeS = CN[C@@H](CO)C(=O)O; NMeA = CN[C@@H](C)C(=O)O; Nle = CCCC[C@H](N)C(=O)O; Piperidide = C1CCN(*)CC1; Ac5c = NC1(C(=O)O)CCCC1; Aze = O=C(O)[C@@H]1CCN1; Cyclopropyl = C1CC1*; Sar = CNCC(=O)O

Legend:
[1] = target: T1, Kras and SOS1 (biotin-tagged human Kras loaded with GDP, His-tagged human SOS1) (Homo sapiens, UniProt P01116, G12D); assay: Protein-protein interaction inhibition between Kras and SOS1 (KrasGl2D-SOS PPI) using AlphaScreen; type: binding; conditions: AlphaScreen; biotin-tagged human Kras loaded with GDP, His-tagged human SOS1; read-out: KRAS G12D-SOS PPI IC50
T1 construct: made in house; host or cells: E. coli (stated for Kras only)
T1 sequence (P01116 1-188 isoform P01116-2 G12D): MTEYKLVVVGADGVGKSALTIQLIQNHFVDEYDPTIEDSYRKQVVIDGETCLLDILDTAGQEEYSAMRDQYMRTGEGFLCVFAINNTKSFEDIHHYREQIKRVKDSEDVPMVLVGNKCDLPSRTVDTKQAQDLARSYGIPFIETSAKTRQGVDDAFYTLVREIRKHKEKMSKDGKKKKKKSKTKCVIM
Outline: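 Donor beads (nickel) hold His-SOS1; acceptor beads (streptavidin) hold biotin-Kras bound to GDP. Signal measured at 520-620 nm following 680 nm excitation.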

[2] = tested on: Human pancreatic cancer cell line AsPC-1; assay: Measurement of AsPC-1 cell growth inhibition (AsPC-1 CGI); type: cell-based; conditions: 96 h
Outline: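 AsPC-1 cells in 15% FBS RPMI-1640 were exposed to test compound for 96 hours at 37° C, with CellTiter-Glo as endpoint.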

| SMILES | IC50 [1] | IC50 [2] |
| --- | --- | --- |
| CC[C@H](C)[C@@H]1NC(=O)[C@H](CC2CCCC2)N(C)C(=O)C[C@@H](C(=O)N2CCCCC2)N(C)C(=O)[C@H](C(C)C)N(C)C(=O)C2(CCCC2)NC(=O)[C@@H]2CCCN2C(=O)[C@H](CCc2ccc(C(F)(F)F)c(Cl)c2)NC(=O)CN(C)C(=O)[C@H](CC2CCCCC2)N(C)C(=O)CN(C)C(=O)CN(C)C1=O [Compound 60] ([NMeAla(cPent)]I[Sar][Sar][NMeCha][Sar][hPhe(3-Cl-4-CF3)]P[Ac5c][NMeV][NMeD]-Piperidide; lactam N-11) | 7.9 nM | 100 to 500 nM |
| CC[C@H](C)[C@@H]1NC(=O)[C@H](CC(C)C)N(C)C(=O)C[C@@H](C(=O)N2C3CCC2COC3)N(C)C(=O)[C@H](C2CCCCC2)N(C)C(=O)C2(CCCC2)NC(=O)[C@@H]2CCCN2C(=O)[C@H](CCc2ccc(C(F)(F)F)cc2)NC(=O)CN(C)C(=O)[C@H](CC2CCCCC2)N(C)C(=O)CN(C)C(=O)CN(C)C1=O [Compound 1940] ([NMeL]I[Sar][Sar][NMeCha][Sar][hPhe(4-CF3)]P[Ac5c][NMeChg][NMeD]-{3Oxa8azabicyclo(3.2.1)octane}; lactam N-11) | 1.6 nM | 100 to 500 nM |
| CC[C@H](C)[C@@H]1NC(=O)[C@H](CC(C)C)N(C)C(=O)C[C@@H](C(=O)N(C)C)N(C)C(=O)[C@H](C2CCCC2)N(C)C(=O)C2(CCCC2)NC(=O)[C@H](Cc2ccc(F)cc2)N(C)C(=O)[C@H](CCc2ccc(C(F)(F)F)c(Cl)c2)NC(=O)CN(C)C(=O)[C@H](CC2CCCCC2)N(C)C(=O)[C@@H]2CCN2C(=O)[C@H](C)N(C)C1=O [Compound 920] ([NMeL]I[NMeA][Aze][NMeCha][Sar][hPhe(3-Cl-4-CF3)][NMePhe(4-F)][Ac5c][NMeGly(cPent)][NMeD]-NMe2; lactam N-11) | 15 nM | 100 to 500 nM |
| CC[C@H](C)[C@@H]1NC(=O)[C@H](CC(C)C)N(C)C(=O)C[C@@H](C(=O)N2CCCCC2)N(C)C(=O)[C@H](CC(C)C)N(C)C(=O)C2(CCCC2)NC(=O)[C@@H]2CCCN2C(=O)[C@H](CCc2ccc(C(F)(F)F)c(F)c2)NC(=O)CN(C)C(=O)[C@H](CC2CCCCC2)N(C)C(=O)CN(C)C(=O)CN(C)C1=O [Compound 1501] ([NMeL]I[Sar][Sar][NMeCha][Sar][hPhe(3-F,4-CF3)]P[Ac5c][NMeL][NMeD]-Piperidide; lactam N-11) | 14 nM | 100 to 500 nM |
| CC[C@H](C)[C@@H]1NC(=O)[C@H](COC2CC2)N(C)C(=O)C[C@@H](C(=O)N2CCCCC2)N(C)C(=O)[C@H](C2CCCCC2)N(C)C(=O)C2(CCCC2)NC(=O)[C@@H]2CCCN2C(=O)[C@H](CCc2ccc(C(F)(F)F)c(Cl)c2)NC(=O)CN(C)C(=O)[C@H](CC2CCCCC2)N(C)C(=O)CN(C)C(=O)CN(C)C1=O [Compound 1786] ([NMeS](Cyclopropyl)I[Sar][Sar][NMeCha][Sar][hPhe(3-Cl-4-CF3)]P[Ac5c][NMeChg][NMeD]-Piperidide; lactam N-11) | 0.72 nM | 50 to 100 nM |
| CC[C@H](C)[C@@H]1NC(=O)[C@H](CC(C)C)N(C)C(=O)C[C@@H](C(=O)N2CCCCC2)N(C)C(=O)[C@H](CC(C)C)N(C)C(=O)C2(CCCC2)NC(=O)[C@@H]2CCCN2C(=O)[C@H](CCc2ccc(C(F)(F)F)c(F)c2)NC(=O)CN(C)C(=O)[C@H](Cc2ccc(Cl)cc2)N(CC)C(=O)CN(C)C(=O)CN(C)C1=O [Compound 328] ([NMeL]I[Sar][Sar][NEtPhe(4-Cl)][Sar][hPhe(3-F,4-CF3)]P[Ac5c][NMeL][NMeD]-Piperidide; lactam N-11) | 94 nM | 100 to 500 nM |
| CCCC[C@@H]1NC(=O)[C@H](Cc2cccc(I)c2)NC(=O)CN(C)C(=O)[C@H](Cc2ccc(Cl)cc2)N(C)C(=O)CN(C)C(=O)CN(C)C(=O)[C@H]([C@@H](C)CC)NC(=O)[C@H](CC(C)C)N(C)C(=O)C[C@@H](C(=O)N2CCCCC2)N(C)C(=O)[C@H](CC(C)C)NC(=O)[C@H](Cc2ccc(F)cc2)N(C)C1=O [Compound 997] ([NMeL]I[Sar][Sar][NMePhe(4-Cl)][Sar][Phe(3-I)][Nle][NMePhe(4-F)]L[NMeD]-Piperidide; lactam N-11) | 24 nM | 100 to 500 nM |
| CC[C@H](C)[C@@H]1NC(=O)[C@H](CC(F)(F)F)N(C)C(=O)C[C@@H](C(=O)N2C3CCC2COC3)N(C)C(=O)[C@H](C2CCCCC2)N(C)C(=O)C2(CCCC2)NC(=O)[C@@H]2CCCN2C(=O)[C@H](CCc2ccc(C(F)(F)F)c(Cl)c2)NC(=O)CN(C)C(=O)[C@H](Cc2ccc(C(F)(F)F)cc2)N(C)C(=O)CN(C)C(=O)CN(C)C1=O [Compound 173] ([NMeAbu(4,4,4-F3)]I[Sar][Sar][NMePhe(4-CF3)][Sar][hPhe(3-Cl-4-CF3)]P[Ac5c][NMeChg][NMeD]-{3Oxa8azabicyclo(3.2.1)octane}; lactam N-11) | 0.56 nM | 20 to 50 nM |
